Active and inactive are the calls of the source. The calls are words filed in the database; no cut-off is given here.
Legend:
Staphylococcus aureus [1] = assay: Antibacterial activity against SCCmec type 4 genotype-positive and methicillin-resistant Staphylococcus aureus by CLSI method; assay type: functional, organism-based
Staphylococcus aureus [2] = assay: Antibacterial activity against SCCmec type 2 genotype-positive and methicillin-resistant Staphylococcus aureus by CLSI method; assay type: functional, organism-based

SMILES	Activity (Staphylococcus aureus [1])	Activity (Staphylococcus aureus [2])
CCC[C@@H]1C[C@@H](C(=O)N[C@@H]([C@H]2O[C@H](SC)[C@H](O)[C@@H](O)[C@H]2O)[C@H](C)Cl)N(C)C1	Active	inactive
CN(C)[C@@H]1C(O)=C(C(N)=O)C(=O)[C@@]2(O)C(O)=C3C(=O)c4c(O)cccc4[C@@](C)(O)[C@H]3C[C@@H]12	inactive	
C[C@H]1COc2c(N3CCN(C)CC3)c(F)cc3c(=O)c(C(=O)O)cn1c23	Active	inactive

Reference: ChEMBL document CHEMBL1275494, “Microbiological and genotypic analysis of methicillin-resistant Staphylococcus aureus bacteremia” (2008)
